Source: ChEMBL document CHEMBL1137861, “Novel pyrazinone inhibitors of mast cell tryptase: synthesis and SAR evaluation” (Bioorg Med Chem Lett, 2004)

Target: T1, Tryptase beta-1 (Homo sapiens, UniProt Q15661)
Experiment: Inhibitory activity against human Tryptase beta 2 expressed in yeast cells at 5 uM
Type: cell-based

T1 sequence (Q15661 31-275 limits assumed): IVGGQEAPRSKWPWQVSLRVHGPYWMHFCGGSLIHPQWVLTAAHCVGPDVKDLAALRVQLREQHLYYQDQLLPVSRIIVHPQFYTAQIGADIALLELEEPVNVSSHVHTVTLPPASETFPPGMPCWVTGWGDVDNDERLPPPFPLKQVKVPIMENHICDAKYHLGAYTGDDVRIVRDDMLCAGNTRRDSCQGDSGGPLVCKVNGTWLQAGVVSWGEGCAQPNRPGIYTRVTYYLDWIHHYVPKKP

| SMILES | inhibition |
| --- | --- |
| Cc1c(Cl)nc(N[C@H]2CC[C@H](N)CC2)c(=O)n1CC(=O)NC1CCC(N)CC1 (some centres undefined) | 2% |
| Cc1c(Cl)nc(N[C@H]2CC[C@H](N)CC2)c(=O)n1CC(=O)Nc1ccc(CN)cc1 | 16% |
| Cc1c(Cl)nc(N[C@H]2CC[C@H](N)CC2)c(=O)n1CC(=O)Nc1ccc(C(N)=O)cc1 | 31% |
| Cc1c(Cl)nc(N[C@H]2CC[C@H](N)CC2)c(=O)n1CC(=O)NCCc1c[nH]cn1 | 8% |

Further lines, results first:

| inhibition | SMILES |
| --- | --- |
| 18% | Cc1c(Cl)nc(N[C@H]2CC[C@H](N)CC2)c(=O)n1CC(=O)Nc1cccc(C(N)=O)c1 |
| 7% | Cc1c(Cl)nc(N[C@H]2CC[C@H](N)CC2)c(=O)n1CC(=O)Nc1cccc(N)c1 |
| 29% | Cc1c(Cl)nc(N[C@H]2CC[C@H](N)CC2)c(=O)n1CC(=O)Nc1ccc(N)cc1 |

Target: T1, Tryptase beta-1
Experiment: Inhibitory activity against human Tryptase beta 2 expressed in yeast cells at 5 uM; not active
Type: cell-based

| inhibition | SMILES |
| --- | --- |
| 24% | Cc1c(Cl)nc(Nc2ccc(F)cc2)c(=O)n1CC(=O)Nc1cccc(CN)c1 |
| 11% | Cc1c(Cl)nc(Nc2cccc(Cl)c2)c(=O)n1CC(=O)Nc1cccc(CN)c1 |
